# Test results as given in patent US20200131196A1 (Mount Tam Therapeutics, Inc., priority 2017, published 2020).
# Where two headings read alike, the source gives them in different places.
# Assays:
# SK-MEL-28 = assay: OncoPanel cell proliferation assay, SK-MEL-28; assay type: cell-based, human
# Experimental: (§1) Cells were grown in RPMI 1640, 10% FBS, 2 mM L-alanyl-L-glutamine, 1 mM Na pyruvate, or a special medium. Cells were seeded into 384-well plates and incubated in a humidified atmosphere of 5% CO2 at 37° C. Compounds were added the day following cell seeding. At the same time, a time zero untreated cell plate was generated. After a 3-day incubation period, cells were fixed and stained to allow fluorescence imaging of nuclei. Compounds (1 mM stock solutions) were serially diluted in half-log steps from the highest test concentration ([…]), and assayed over 10 concentrations with a maximum assay concentration of 0.1% DMSO. Automated fluorescence microscopy was carried out using a Molecular Devices ImageXpress Micro XL high-content imager, and images were collected with a 4× objective. 16-bit TIFF images were acquired and analyzed with MetaXpress 5.1.0.41 software.
# (§2) Cell proliferation was measured by the fluorescence intensity of an incorporated nuclear dye. The output is referred to as the relative cell count, where the measured nuclear intensity is transformed to percent of control (POC) using the following formula: […]
# (§3) Cellular response parameters were calculated using nonlinear regression to a sigmoidal single-site dose response model:
# (§4) EC50 is the test compound concentration at the curve inflection point or half the effective response (parameter C of the fitted curve solution). GI50 is the concentration needed to reduce the observed growth by half (midway between the curve maximum and the time zero value). “Cell Count Activity Area” is an estimate of the integrated area above the curve (Barretina, et al. The Cancer Cell Line Encyclopedia enables predictive modelling of anticancer drug sensitivity. Nature 483: 603-607). […] In rare instances, values <0 or >10 may be observed. […] Curve-fitting, calculations, and report generation was performed using a custom data reduction engine and MathIQ based software (AIM).
# SCaBER = assay: OncoPanel cell proliferation assay, SCaBER; assay type: cell-based, human
# Experimental: as §1, §2, §3, §4
# AGS = assay: OncoPanel cell proliferation assay, AGS; assay type: cell-based, human
# Experimental: as §1, §2, §3, §4
# SK-UT-1 = assay: OncoPanel cell proliferation assay, SK-UT-1
# Experimental: Cells were seeded into 384-well plates and incubated in a humidified atmosphere of 5% CO2 at 37° C. Compounds were added the day following cell seeding. At the same time, a time zero untreated cell plate was generated. After a 3-day incubation period, cells were fixed and stained to allow fluorescence imaging of nuclei. Compounds (1 mM stock solutions) were serially diluted in half-log steps from the highest test concentration (1 micromol), and assayed over 10 concentrations with a maximum assay concentration of 0.1% DMSO. Automated fluorescence microscopy was carried out using a Molecular Devices ImageXpress Micro XL high-content imager, and images were collected with a 4× objective. 16-bit TIFF images were acquired and analyzed with MetaXpress 5.1.0.41 software.
# GI50 is the concentration needed to reduce the observed growth by half (midway between the curve maximum and the time zero value). […] In rare instances, values <0 or >10 may be observed. […] Curve-fitting, calculations, and report generation was performed using a custom data reduction engine and MathIQ based software (AIM).
# CML-T1 = assay: OncoPanel cell proliferation assay, CML-T1; assay type: cell-based, human
# Experimental: as §1, §2, §3, §4
# NCIH446 = assay: OncoPanel cell proliferation assay, NCIH446; assay type: cell-based, human
# Experimental: as §1, §2, §3, §4
# CRO-AP2 = assay: OncoPanel cell proliferation assay, CRO-AP2; assay type: cell-based, human
# Experimental: as §1, §2, §3, §4
# [1] = Homo sapiens, read-out: Cell Count EC50
# [2] = Homo sapiens, read-out: Cell Count GI50
# [3] = Homo sapiens, read-out: Cell Count IC50
smiles,measurement,setting,value
"CO[C@H]1C[C@@H]2CC[C@@H](C)[C@@](O)(O2)C(=O)C(=O)N2CCCC[C@H]2C(=O)O[C@H]([C@H](C)C[C@H]2C[C@H]3C[C@@H]2C[C@@H]3O)CC(=O)[C@H](C)/C=C(\C)[C@@H](O)[C@@H](OC)C(=O)[C@H](C)C[C@H](C)/C=C/C=C/C=C/1C [Formula II, C37-[(1R,2S,4R,5S)-5-hyhroxybicyclo[2.2.1]heptane] rapamycin]",Cell Count Activity Area,SK-MEL-28,2.68
same,Relative cell count (%) Mean,SK-MEL-28; 1.00E+00 microM,60.6%
same,Relative cell count (%) Mean,SK-MEL-28; 1.00E-01 microM,69.8%
same,Relative cell count (%) Mean,SK-MEL-28; 1.00E-02 microM,84.3%
same,Relative cell count (%) Mean,SK-MEL-28; 1.00E-03 microM,91.6%
same,Relative cell count (%) Mean,SK-MEL-28; 1.01E-04 microM,110.7%
same,Relative cell count (%) Mean,SK-MEL-28; 3.16E-01 microM,66.4%
same,Relative cell count (%) Mean,SK-MEL-28; 3.17E-02 microM,71.0%
same,Relative cell count (%) Mean,SK-MEL-28; 3.17E-03 microM,85.4%
same,Relative cell count (%) Mean,SK-MEL-28; 3.18E-04 microM,94.6%
same,Relative cell count (%) Mean,SK-MEL-28; 3.18E-05 microM,102.8%
same,EC50,"SK-MEL-28; Homo sapiens, Skin, Melanoma, summary Table 5, read-out: EC50",4.8 nM
same,EC50,SK-MEL-28; [1],4.71 nM
same,GI50,SK-MEL-28; [2],38.2 nM
same,IC50,SK-MEL-28; [3],> 1000 nM
same,Cell Count Activity Area,SCaBER,4.82
same,Relative cell count (%) Mean,SCaBER; 1.00E+00 microM,32.7%
same,Relative cell count (%) Mean,SCaBER; 1.00E-01 microM,44.5%
same,Relative cell count (%) Mean,SCaBER; 1.00E-02 microM,42.2%
same,Relative cell count (%) Mean,SCaBER; 1.00E-03 microM,56.1%
same,Relative cell count (%) Mean,SCaBER; 1.01E-04 microM,83.1%
same,Relative cell count (%) Mean,SCaBER; 3.16E-01 microM,36.3%
same,Relative cell count (%) Mean,SCaBER; 3.17E-02 microM,39.5%
same,Relative cell count (%) Mean,SCaBER; 3.17E-03 microM,50.7%
same,Relative cell count (%) Mean,SCaBER; 3.18E-04 microM,63.5%
same,Relative cell count (%) Mean,SCaBER; 3.18E-05 microM,93.1%
same,EC50,"SCaBER; Homo sapiens, Bladder, summary Table 5, read-out: EC50",0.25 nM
same,EC50,SCaBER; [1],0.25 nM
same,GI50,SCaBER; [2],0.872 nM
same,IC50,SCaBER; [3],1.59 nM
same,Cell Count Activity Area,AGS,5.29
same,Relative cell count (%) Mean,AGS; 1.00E+00 microM,41.7%
same,Relative cell count (%) Mean,AGS; 1.00E-01 microM,44.3%
same,Relative cell count (%) Mean,AGS; 1.00E-02 microM,41.0%
same,Relative cell count (%) Mean,AGS; 1.00E-03 microM,48.7%
same,Relative cell count (%) Mean,AGS; 1.01E-04 microM,87.1%
same,Relative cell count (%) Mean,AGS; 3.16E-01 microM,40.7%
same,Relative cell count (%) Mean,AGS; 3.17E-02 microM,42.8%
same,Relative cell count (%) Mean,AGS; 3.17E-03 microM,51.4%
same,Relative cell count (%) Mean,AGS; 3.18E-04 microM,63.8%
same,Relative cell count (%) Mean,AGS; 3.18E-05 microM,124.5%
same,EC50,AGS; [1],0.133 nM
same,GI50,AGS; [2],0.245 nM
same,IC50,AGS; [3],0.297 nM
same,EC50,"SK-UT-1; Homo sapiens, SK-UT-1, read-out: Cell Count EC50",1.51 nM
same,GI50,"SK-UT-1; Homo sapiens, SK-UT-1, read-out: Cell Count GI50",11.3 nM
same,IC50,"SK-UT-1; Homo sapiens, SK-UT-1, read-out: Cell Count IC50",38.2 nM
same,Cell Count Activity Area,SK-UT-1; SK-UT-1,3.48
same,Relative cell count (%) Mean,"SK-UT-1; SK-UT-1, 1.00E+00 microM",47.0%
same,Relative cell count (%) Mean,"SK-UT-1; SK-UT-1, 1.00E-01 microM",59.0%
same,Relative cell count (%) Mean,"SK-UT-1; SK-UT-1, 1.00E-02 microM",76.1%
same,Relative cell count (%) Mean,"SK-UT-1; SK-UT-1, 1.00E-03 microM",82.8%
same,Relative cell count (%) Mean,"SK-UT-1; SK-UT-1, 1.01E-04 microM",114.4%
same,Relative cell count (%) Mean,"SK-UT-1; SK-UT-1, 3.16E-01 microM",53.3%
same,Relative cell count (%) Mean,"SK-UT-1; SK-UT-1, 3.17E-02 microM",61.4%
same,Relative cell count (%) Mean,"SK-UT-1; SK-UT-1, 3.17E-03 microM",75.4%
same,Relative cell count (%) Mean,"SK-UT-1; SK-UT-1, 3.18E-04 microM",96.2%
same,Relative cell count (%) Mean,"SK-UT-1; SK-UT-1, 3.18E-05 microM",116.9%
same,Cell Count Activity Area,CML-T1,3.68
same,Relative cell count (%) Mean,CML-T1; 1.00E+00 microM,44.0%
same,Relative cell count (%) Mean,CML-T1; 1.00E-01 microM,46.4%
same,Relative cell count (%) Mean,CML-T1; 1.00E-02 microM,54.5%
same,Relative cell count (%) Mean,CML-T1; 1.00E-03 microM,67.7%
same,Relative cell count (%) Mean,CML-T1; 1.01E-04 microM,96.1%
same,Relative cell count (%) Mean,CML-T1; 3.16E-01 microM,42.4%
same,Relative cell count (%) Mean,CML-T1; 3.17E-02 microM,46.2%
same,Relative cell count (%) Mean,CML-T1; 3.17E-03 microM,59.5%
same,Relative cell count (%) Mean,CML-T1; 3.18E-04 microM,78.8%
same,Relative cell count (%) Mean,CML-T1; 3.18E-05 microM,96.6%
same,EC50,CML-T1; [1],0.821 nM
same,GI50,CML-T1; [2],3.64 nM
same,IC50,CML-T1; [3],12.5 nM
same,Cell Count Activity Area,NCIH446,1.23
same,Relative cell count (%) Mean,NCIH446; 1.00E+00 microM,80.9%
same,Relative cell count (%) Mean,NCIH446; 1.00E-01 microM,83.6%
same,Relative cell count (%) Mean,NCIH446; 1.00E-02 microM,83.2%
same,Relative cell count (%) Mean,NCIH446; 1.00E-03 microM,93.7%
same,Relative cell count (%) Mean,NCIH446; 1.01E-04 microM,102.5%
same,Relative cell count (%) Mean,NCIH446; 3.16E-01 microM,74.9%
same,Relative cell count (%) Mean,NCIH446; 3.17E-02 microM,83.3%
same,Relative cell count (%) Mean,NCIH446; 3.17E-03 microM,85.8%
same,Relative cell count (%) Mean,NCIH446; 3.18E-04 microM,87.3%
same,Relative cell count (%) Mean,NCIH446; 3.18E-05 microM,94.2%
same,EC50,"NCIH446; Homo sapiens, NCI-H446, read-out: Cell Count EC50",> 1000 nM
same,GI50,"NCIH446; Homo sapiens, NCI-H446, read-out: Cell Count GI50",> 1000 nM
same,IC50,"NCIH446; Homo sapiens, NCI-H446, read-out: Cell Count IC50",> 1000 nM
same,Cell Count Activity Area,CRO-AP2,4.89
same,Relative cell count (%) Mean,CRO-AP2; 1.00E+00 microM,24.8%
same,Relative cell count (%) Mean,CRO-AP2; 1.00E-01 microM,27.5%
same,Relative cell count (%) Mean,CRO-AP2; 1.00E-02 microM,34.9%
same,Relative cell count (%) Mean,CRO-AP2; 1.00E-03 microM,65.3%
same,Relative cell count (%) Mean,CRO-AP2; 1.01E-04 microM,100.6%
same,Relative cell count (%) Mean,CRO-AP2; 3.16E-01 microM,24.7%
same,Relative cell count (%) Mean,CRO-AP2; 3.17E-02 microM,27.0%
same,Relative cell count (%) Mean,CRO-AP2; 3.17E-03 microM,47.3%
same,Relative cell count (%) Mean,CRO-AP2; 3.18E-04 microM,81.8%
same,Relative cell count (%) Mean,CRO-AP2; 3.18E-05 microM,98.0%
same,EC50,CRO-AP2; [1],1.07 nM
same,GI50,CRO-AP2; [2],1.65 nM
same,IC50,CRO-AP2; [3],2.21 nM
